From ChEMBL document CHEMBL1148103, “Antifungal steroidal glycosides from the patagonian starfish anasteriasminuta: structure-activity correlations” (2002)
Activity calls are given as the source filed them. No cut-off for these calls is given here.

Experiments:
Cladosporium cucumerinum [1] = assay: Antifungal activity against Cladosporium cucumerinum after 2 to 3 days by bioautographic assay; assay type: functional, organism-based
Cladosporium cucumerinum [2] = assay: Antifungal activity against Cladosporium cucumerinum at 10 ug/spot after 2 to 3 days by bioautographic assay; assay type: functional

SMILES	Activity (Cladosporium cucumerinum [1])	inhibition zone (IZ) (Cladosporium cucumerinum [2]) [mm]
CC(C)CC(=O)C[C@@](C)(O)[C@H]1CC[C@H]2[C@@H]3C[C@H](O[C@@H]4O[C@H](C)[C@@H](O)[C@H](O[C@@H]5OC[C@@H](O[C@@H]6O[C@H](CO)[C@H](O)[C@H](O)[C@H]6O[C@@H]6O[C@H](C)[C@H](O[C@@H]7O[C@H](CO)[C@H](O)[C@H](O)[C@H]7O)[C@H](O)[C@H]6O)[C@H](O)[C@H]5O[C@@H]5O[C@H](C)[C@@H](O)[C@H](O)[C@H]5O)[C@H]4O)[C@H]4C[C@@H](OS(=O)(=O)O)CC[C@]4(C)C3=CC[C@@]21C	Dose-dependent effect	–
CCCCNC(=O)n1c(NC(=O)OC)nc2ccccc21 [BENOMYL]	–	20
CC(C)CC(=O)C[C@@](C)(O)[C@H]1CC[C@H]2[C@@H]3C[C@H](O[C@@H]4O[C@H](C)[C@@H](O)[C@H](O[C@@H]5OC[C@@H](O)[C@H](O)[C@H]5O[C@@H]5O[C@H](C)[C@@H](O)[C@H](O)[C@H]5O)[C@H]4O)[C@H]4C[C@@H](OS(=O)(=O)O)CC[C@]4(C)C3=CC[C@@]21C	inactive	–
CC(=O)[C@H]1CC[C@H]2[C@@H]3C[C@H](O[C@@H]4O[C@H](C)[C@@H](O)[C@H](O[C@@H]5OC[C@@H](O[C@@H]6O[C@H](CO)[C@H](O)[C@H](O)[C@H]6O[C@@H]6O[C@H](C)[C@H](O[C@@H]7O[C@H](CO)[C@H](O)[C@H](O)[C@H]7O)[C@H](O)[C@H]6O)[C@H](O)[C@H]5O[C@@H]5O[C@H](C)[C@@H](O)[C@H](O)[C@H]5O)[C@H]4O)[C@H]4C[C@@H](OS(=O)(=O)O)CC[C@]4(C)C3=CC[C@]12C	inactive	–
CC(C)CC(=O)C[C@@](C)(O)[C@H]1CC[C@H]2[C@@H]3C[C@H](O[C@@H]4O[C@H](C)[C@@H](O)[C@H](O[C@@H]5OC[C@@H](O[C@@H]6O[C@H](CO)[C@H](O)[C@H](O)[C@H]6O[C@@H]6O[C@H](C)[C@H](O)[C@H](O)[C@H]6O)[C@H](O)[C@H]5O[C@@H]5O[C@H](C)[C@@H](O)[C@H](O)[C@H]5O)[C@H]4O)[C@H]4C[C@@H](OS(=O)(=O)O)CC[C@]4(C)C3=CC[C@@]21C	Dose-dependent effect	–
CC(C)CC(=O)C[C@@H](C)[C@H]1CC[C@H]2[C@@H]3C[C@H](O[C@@H]4O[C@H](C)[C@@H](O)[C@H](O[C@@H]5OC[C@@H](O[C@@H]6O[C@H](CO)[C@H](O)[C@H](O)[C@H]6O[C@@H]6O[C@H](C)[C@H](O[C@@H]7O[C@H](CO)[C@H](O)[C@H](O)[C@H]7O)[C@H](O)[C@H]6O)[C@H](O)[C@H]5O[C@@H]5O[C@H](C)[C@@H](O)[C@H](O)[C@H]5O)[C@H]4O)[C@H]4C[C@@H](OS(=O)(=O)O)CC[C@]4(C)C3=CC[C@]12C	Dose-dependent effect	–
